From ChEMBL document CHEMBL3588775, “Synthesis and pharmacological evaluation of N-benzyl substituted 4-bromo-2,5-dimethoxyphenethylamines as 5-HT2A/2C partial agonists” (Bioorg Med Chem, 2015)

Tests used:
[1] = biological target: T1, 5-hydroxytryptamine receptor 2A (Homo sapiens, UniProt P28223); assay: Binding affinity to 5-HT2A receptor (unknown origin) by PDSP assay
[2] = biological target: T2, 5-hydroxytryptamine receptor 2C (Homo sapiens, UniProt P28335); assay: Binding affinity to 5-HT2C receptor (unknown origin) by PDSP assay
T2 sequence (P28335 whole entry): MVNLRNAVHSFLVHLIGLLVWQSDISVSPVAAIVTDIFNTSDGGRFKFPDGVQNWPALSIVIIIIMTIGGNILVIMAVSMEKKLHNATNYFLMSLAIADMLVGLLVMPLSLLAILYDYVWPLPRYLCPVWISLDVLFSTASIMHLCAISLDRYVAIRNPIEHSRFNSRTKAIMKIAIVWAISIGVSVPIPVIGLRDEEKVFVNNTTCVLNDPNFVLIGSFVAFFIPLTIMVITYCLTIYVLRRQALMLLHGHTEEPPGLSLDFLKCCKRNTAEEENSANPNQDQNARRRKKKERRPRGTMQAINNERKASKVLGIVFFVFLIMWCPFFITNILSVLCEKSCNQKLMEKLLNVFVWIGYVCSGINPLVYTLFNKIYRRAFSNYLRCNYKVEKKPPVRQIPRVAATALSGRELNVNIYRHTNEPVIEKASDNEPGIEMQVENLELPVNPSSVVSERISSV

[3] = biological target: T3, Serotonin 2 receptors; 5-HT2a & 5-HT2c (Homo sapiens) (UniProt P28223+P28335); assay: Selectivity for 5-HT2A receptor (unknown origin) over 5-HT2C receptor (unknown origin) by PDSP assay
T3 sequence (P28223 whole entry, looked up, one chain of several): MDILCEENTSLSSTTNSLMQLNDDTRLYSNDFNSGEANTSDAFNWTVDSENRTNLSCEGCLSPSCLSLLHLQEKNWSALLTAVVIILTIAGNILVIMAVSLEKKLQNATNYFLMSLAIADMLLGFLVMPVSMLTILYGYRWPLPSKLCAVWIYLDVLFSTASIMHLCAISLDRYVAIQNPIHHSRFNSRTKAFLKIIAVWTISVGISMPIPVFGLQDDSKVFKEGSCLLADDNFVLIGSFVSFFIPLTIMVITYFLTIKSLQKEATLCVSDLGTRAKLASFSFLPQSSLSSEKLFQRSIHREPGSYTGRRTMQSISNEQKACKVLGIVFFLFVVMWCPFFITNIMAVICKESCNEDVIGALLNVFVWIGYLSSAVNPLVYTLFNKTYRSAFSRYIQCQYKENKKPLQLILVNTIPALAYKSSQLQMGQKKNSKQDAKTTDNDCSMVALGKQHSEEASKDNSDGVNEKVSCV

[4] = biological target: T2, 5-hydroxytryptamine receptor 2C; assay: Partial agonist activity at human 5-HT2C receptor expressed in HEK293 cells preincubated for 1 hr at 37 degC followed by incubated for 15 mins at room temperature by IP-One assay; assay type: cell-based
[5] = biological target: T3, Serotonin 2 receptors; 5-HT2a & 5-HT2c (Homo sapiens); assay: Selectivity for human 5-HT2A receptor over human 5-HT2C receptor by IP-One assay
[6] = biological target: T1, 5-hydroxytryptamine receptor 2A; assay: Partial agonist activity at human 5-HT2A receptor expressed in HEK293 cells preincubated for 1 hr at 37 degC followed by incubated for 15 mins at room temperature by IP-One assay relative to 5-HT; assay type: cell-based
[7] = biological target: T4, 5-hydroxytryptamine receptor 2C (Homo sapiens) (UniProt P28335); assay: Partial agonist activity at human 5-HT2C receptor expressed in HEK293 cells preincubated for 1 hr at 37 degC followed by incubated for 15 mins at room temperature by IP-One assay relative to 5-HT; assay type: cell-based
T4 sequence (whole entry): T2 sequence (P28335 whole entry)

[8] = biological target: T1, 5-hydroxytryptamine receptor 2A
[9] = Selectivity for human 5-HT2A receptor over rat 5-HT2C receptor by PDSP assay
[10] = biological target: T1, 5-hydroxytryptamine receptor 2A; assay: Partial agonist activity at human 5-HT2A receptor expressed in human tsA201 cells after 30 mins by inositol phosphate turnover assay; assay type: functional, cell-based
[11] = biological target: T2, 5-hydroxytryptamine receptor 2C; assay: Partial agonist activity at human 5-HT2C receptor expressed in human tsA201 cells after 30 mins by inositol phosphate turnover assay; assay type: functional, cell-based
[12] = biological target: T3, Serotonin 2 receptors; 5-HT2a & 5-HT2c (Homo sapiens); assay: Selectivity for human 5-HT2A receptor over human 5-HT2C receptor by inositol phosphate turnover assay; assay type: functional
[13] = biological target: T1, 5-hydroxytryptamine receptor 2A; assay: Partial agonist activity at human 5-HT2A receptor expressed in human tsA201 cells after 30 mins by inositol phosphate turnover assay relative to 5-HT; assay type: functional, cell-based
[14] = biological target: T4, 5-hydroxytryptamine receptor 2C (Homo sapiens); assay: Partial agonist activity at human 5-HT2C receptor expressed in human tsA201 cells after 30 mins by inositol phosphate turnover assay relative to 5-HT; assay type: functional, cell-based
[15] = biological target: T1, 5-hydroxytryptamine receptor 2A; assay: Displacement of [3H]-Ketanserin from human 5-HT2A receptor by PDSP assay
[16] = biological target: T5, 5-hydroxytryptamine receptor 2C (Rattus norvegicus, UniProt P08909); assay: Displacement of [3H]-Mesulergine from rat 5-HT2C receptor by PDSP assay
T5 sequence (P08909 whole entry): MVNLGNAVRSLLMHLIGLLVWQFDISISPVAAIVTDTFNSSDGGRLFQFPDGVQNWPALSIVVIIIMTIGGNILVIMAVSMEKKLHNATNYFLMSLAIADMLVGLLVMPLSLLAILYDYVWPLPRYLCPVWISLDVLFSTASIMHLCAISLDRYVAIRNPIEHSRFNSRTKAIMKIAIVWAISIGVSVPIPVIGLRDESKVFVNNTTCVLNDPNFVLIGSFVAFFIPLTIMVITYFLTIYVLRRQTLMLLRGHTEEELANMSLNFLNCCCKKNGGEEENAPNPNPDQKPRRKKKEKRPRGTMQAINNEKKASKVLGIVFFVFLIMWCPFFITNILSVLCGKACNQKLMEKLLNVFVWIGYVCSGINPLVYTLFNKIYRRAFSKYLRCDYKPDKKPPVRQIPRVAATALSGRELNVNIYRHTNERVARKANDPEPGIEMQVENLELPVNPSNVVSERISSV

T1 sequence (P28223 whole entry): as the sequence (P28223 whole entry, looked up, one chain of several) above

COc1cc(CCNCc2cccc(OC)c2F)c(OC)cc1Br
Ki [1]: 3.31 nM
Ki [2]: 56.2 nM
Selectivity ratio [3]: 17
EC50 [4]: 282 nM
Selectivity ratio [5]: 2.7
Emax [6]: 22%
Emax [7]: 16%
EC50 [8]: 105 nM

COc1cc(CCNCc2cccc3cc[nH]c23)c(OC)cc1Br
Ki [1]: 12.9 nM
Ki [2]: 66.1 nM
Selectivity ratio [3]: 5.1

COc1cc(CCNCc2cccc3cn[nH]c23)c(OC)cc1Br
Ki [1]: 12 nM
Ki [2]: 24 nM
Selectivity ratio [3]: 2

COc1cc(CC(C)N)c(OC)cc1I (configuration not stated)
EC50 [4]: 45.7 nM
Emax [6]: 87%
Emax [7]: 119%

COc1cc(CCNCc2ccccc2OC)c(OC)cc1Br
Selectivity ratio [9]: 100

COc1cc(CCNCc2cccc3ncoc23)c(OC)cc1Br
Ki [1]: 11 nM
Ki [2]: 32.4 nM
Selectivity ratio [3]: 2.9

COc1cc(CCNCc2cccc(OC)c2OC)c(OC)cc1Br
Ki [1]: 3.09 nM
Ki [2]: 23.4 nM
Selectivity ratio [3]: 7.5

COc1cc(CCNCc2ccncc2)c(OC)cc1Br
Ki [1]: 141 nM
Ki [2]: 155 nM
Selectivity ratio [3]: 1.1

COc1ccc(CNCCc2cc(OC)c(Br)cc2OC)c(OC)c1
Ki [1]: 20 nM
Ki [2]: 26.9 nM
Selectivity ratio [3]: 1.3

COc1cc(CCNCc2cccc3ccoc23)c(OC)cc1Br
Ki [1]: 0.603 nM
Ki [2]: 2.51 nM
Selectivity ratio [3]: 4.2

COc1cc(CCNCc2cccc3ccsc23)c(OC)cc1Br
Ki [1]: 1.7 nM
Ki [2]: 7.76 nM
Selectivity ratio [3]: 4.5

COc1cc(CCNCc2cccc3c2OCC3)c(OC)cc1Br
Ki [1]: 0.2 nM
Ki [2]: 3.39 nM
Selectivity ratio [3]: 17
EC50 [4]: 32.4 nM
Selectivity ratio [5]: 7.1
Emax [6]: 33%
Emax [7]: 52%
EC50 [8]: 4.57 nM

COc1cc(CCNCc2c(OC)cccc2OC)c(OC)cc1Br
Ki [1]: 316 nM
Ki [2]: 17.4 nM
Selectivity ratio [3]: 0.06
EC50 [4]: 87100 nM
Selectivity ratio [5]: 16
Emax [6]: 53%
Emax [7]: 33%
EC50 [8]: 5370 nM

COc1cc(CCNCc2cccc(O)c2)c(OC)cc1Br
Ki [1]: 1.35 nM
Ki [2]: 20.9 nM
Selectivity ratio [3]: 16

COc1ccc(OC)c(CNCCc2cc(OC)c(Br)cc2OC)c1
Ki [1]: 30.9 nM
Ki [2]: 77.6 nM
Selectivity ratio [3]: 2.5

COc1cc(CCNCc2ccccn2)c(OC)cc1Br
Ki [1]: 38.9 nM
Ki [2]: 41.7 nM
Selectivity ratio [3]: 1.1

COc1cc(CCNCc2cccc(OC)c2O)c(OC)cc1Br
Ki [1]: 0.2 nM
Ki [2]: 6.31 nM
Selectivity ratio [3]: 32
EC50 [4]: 15500 nM
Selectivity ratio [5]: 457
Emax [6]: 21%
Emax [7]: 52%
EC50 [8]: 33.9 nM

COc1cc(CCNCc2cccnc2)c(OC)cc1Br
Ki [1]: 83.2 nM
Ki [2]: 120 nM
Selectivity ratio [3]: 1.4

COc1cccc(CNCCc2cc(OC)c(Br)cc2OC)c1
Ki [1]: 0.437 nM
Ki [2]: 4.68 nM
Selectivity ratio [3]: 11

COc1cc(CCNCc2cccnc2OC)c(OC)cc1Br
Ki [1]: 79.4 nM
Ki [2]: 70.8 nM
Selectivity ratio [3]: 0.9

COc1cc(CCNCc2ccc[nH]c2=O)c(OC)cc1Br
Ki [1]: 123 nM
Ki [2]: 120 nM
Selectivity ratio [3]: 1

COc1cc(CCNCc2cccc3c2OCO3)c(OC)cc1Br
EC50 [10]: 10.5 nM
EC50 [11]: 219 nM
Selectivity ratio [12]: 18
Emax [13]: 71%
Emax [14]: 84%
Ki [15]: 0.603 nM
Ki [16]: 11.2 nM
Selectivity ratio [9]: 18.6

COc1cc(CCNCc2cccc3nc[nH]c23)c(OC)cc1Br
Ki [1]: 7.76 nM
Ki [2]: 9.33 nM
Selectivity ratio [3]: 1.2
